Reference: ChEMBL document CHEMBL4414544, “Dihydropyrimidine-2-thiones as Eg5 inhibitors and L-type calcium channel blockers: potential antitumour dual agents” (Medchemcomm, 2019)
The source made the active and inactive calls. No cut-off for these calls is given here.

How the values were obtained:
[1] = test system: MM1.S; test: Antiproliferative activity against human MM1S cells incubated for 72 hrs by MTT assay; type: functional, cell-based
[2] = test system: Aorta; test: Vasodilating activity in Wistar rat aortic rings assessed as reduction in phenylephrine-induced contractions; type: functional, tissue-based
[3] = test system: Aorta; test: Vasodilating activity in Wistar rat aortic rings assessed as reduction in phenylephrine-induced contractions relative to control; type: functional
[4] = test system: A549; test: Antiproliferative activity against human A549 cells incubated for 72 hrs by MTT assay; type: functional, cell-based; conditions: A549, 72 h
[5] = test system: HCT-116; test: Antiproliferative activity against human HCT116 cells incubated for 72 hrs by MTT assay; type: functional, cell-based; conditions: HCT-116, 72 h
[6] = target: T1, Kinesin-like protein KIF11 (Homo sapiens) (UniProt P52732); test: Inhibition of Eg5 in human MCF7 cells assessed as increase in monopolar spindle formation at 100 uM incubated for 24 hrs by DAPI staining based confocal microscopic method; type: cell-based
T1 sequence (whole entry): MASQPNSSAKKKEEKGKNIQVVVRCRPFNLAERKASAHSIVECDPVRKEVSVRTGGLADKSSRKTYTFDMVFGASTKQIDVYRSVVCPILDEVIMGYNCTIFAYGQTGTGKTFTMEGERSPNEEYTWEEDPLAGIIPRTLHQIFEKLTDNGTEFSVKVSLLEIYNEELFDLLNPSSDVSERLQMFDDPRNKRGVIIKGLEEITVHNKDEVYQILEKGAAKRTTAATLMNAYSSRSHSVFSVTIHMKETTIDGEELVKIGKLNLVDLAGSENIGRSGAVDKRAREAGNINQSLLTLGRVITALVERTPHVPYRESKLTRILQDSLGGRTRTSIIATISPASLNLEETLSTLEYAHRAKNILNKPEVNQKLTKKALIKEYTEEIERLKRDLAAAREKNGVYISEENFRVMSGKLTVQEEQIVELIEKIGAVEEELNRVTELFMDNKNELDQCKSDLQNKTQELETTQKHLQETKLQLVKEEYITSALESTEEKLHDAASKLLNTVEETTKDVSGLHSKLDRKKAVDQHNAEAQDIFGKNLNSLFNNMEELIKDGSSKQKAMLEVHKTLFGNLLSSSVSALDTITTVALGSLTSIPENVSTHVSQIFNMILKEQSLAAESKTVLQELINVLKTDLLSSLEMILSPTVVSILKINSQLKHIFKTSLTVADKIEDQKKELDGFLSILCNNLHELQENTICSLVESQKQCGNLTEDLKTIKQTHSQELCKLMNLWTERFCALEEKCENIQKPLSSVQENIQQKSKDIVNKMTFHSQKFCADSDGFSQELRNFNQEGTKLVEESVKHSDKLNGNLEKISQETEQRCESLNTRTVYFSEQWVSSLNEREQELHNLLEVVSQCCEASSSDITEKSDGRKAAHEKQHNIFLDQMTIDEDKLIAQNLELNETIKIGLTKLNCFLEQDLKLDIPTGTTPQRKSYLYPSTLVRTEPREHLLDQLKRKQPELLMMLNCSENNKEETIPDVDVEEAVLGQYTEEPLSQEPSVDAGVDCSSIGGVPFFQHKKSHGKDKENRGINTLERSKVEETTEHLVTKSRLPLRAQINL

[7] = test system: Aorta; test: Vasodilating activity in Wistar rat aortic rings assessed as reduction in KCl-induced contractions; type: functional, tissue-based
[8] = test system: Aorta; test: Vasodilating activity in Wistar rat aortic rings assessed as reduction in KCl-induced contractions relative to control; type: functional
[9] = test system: MCF7; test: Antiproliferative activity against human MCF7 cells incubated for 72 hrs by MTT assay; type: functional, cell-based; conditions: MCF7, 72 h
[10] = Cytotoxicity against human MSC assessed as reduction in cell viability incubated for 72 hrs by MTT assay; type: ADME
[11] = target: T2, Voltage-gated L-type calcium channel (Rattus norvegicus, UniProt P22002+Q02485+P27732); test: Inhibition of L-type calcium channel in Wistar rat aortic rings assessed as reduction in (-)-Bay K8644-induced contractions at 10^-4 M measured after 20 mins; conditions: 100 µM
[12] = test system: Aorta; test: Vasodilating activity in Wistar rat aortic rings assessed as reduction in phenylephrine-induced contractions in presence of Cacl2 in calcium free Krebs medium incubated for 1 hr relative to control; type: functional; design: scale not given: the % may be the effect or the level left
[13] = target: T2, Voltage-gated L-type calcium channel; test: Inhibition of L-type calcium channel in Wistar rat aortic rings assessed as reduction in (-)-Bay K8644-induced contractions at 10^-5 M measured after 20 mins; conditions: 10 µM

| SMILES | IC50 [1] [µM] | IC50 [2] [µM] | IC50 [4] [µM] | IC50 [5] [µM] | inhibition [6] | IC50 [7] [µM] | IC50 [9] [µM] | inhibition (INH) [11] | inhibition (INH) [13] | Emax [3] [%] | Emax [8] [%] | IC50 [10] [µM] | Activity [12] [%] |
| --- | --- | --- | --- | --- | --- | --- | --- | --- | --- | --- | --- | --- | --- |
| CCOC(=O)C1=C(C)NC(=S)NC1c1cccnc1 (racemic) | > 100 | 46 | > 100 | > 100 | – | 52 | > 100 | – | – | 80.9 | 78.4 | – | – |
| CCOC(=O)C1=C(C)NC(=S)NC1c1ccc(OC)c(O)c1 (racemic) | > 100 | 25 | > 100 | > 100 | – | 37 | > 100 | – | – | 88.4 | 77 | – | – |
| CCOC(=O)C1=C(C)N=C(S)NC1c1cccc([N+](=O)[O-])c1 (racemic) | 96.5 | 3.2 | 44.9 | 58 | Active | 16 | 32.2 | Active | Active | 84.9 | 95.4 | > 100 | 18.1 |
| COC(=O)C1=C(C)NC(C)=C(C(=O)OC)C1c1ccccc1[N+](=O)[O-] [NIFEDIPINE] | 57.9 | 0.019 | > 100 | > 100 | – | 0.0029 | > 100 | – | – | 75.1 | 98.7 | > 100 | – |

Further lines, with some results ahead:

| IC50 [1] [µM] | IC50 [2] [µM] | IC50 [4] [µM] | IC50 [5] [µM] | inhibition [6] | IC50 [7] [µM] | IC50 [9] [µM] | inhibition (INH) [11] | inhibition (INH) [13] | SMILES | Emax [3] [%] | Emax [8] [%] | IC50 [10] [µM] | Activity [12] [%] |
| --- | --- | --- | --- | --- | --- | --- | --- | --- | --- | --- | --- | --- | --- |
| > 100 | 29 | > 100 | > 100 | Active | 91 | > 100 | – | – | CCOC(=O)C1=C(C)NC(=S)NC1c1ccc(O)c(OC)c1 (racemic) | 78 | 78.3 | – | – |
| > 100 | 26 | > 100 | > 100 | – | 38 | > 100 | – | – | CCOC(=O)C1=C(C)NC(=S)NC1c1ccc(O)c([N+](=O)[O-])c1 (racemic) | 62.4 | 57.1 | – | – |
| > 100 | 5.6 | > 100 | > 100 | Active | 12 | > 100 | Active | – | CCOC(=O)C1=C(C)NC(=S)NC1c1ccc2c(c1)OCCO2 (racemic) | 83.3 | 71.7 | > 100 | 41.8 |
| 63.1 | 42 | > 100 | > 100 | – | 36 | > 100 | – | – | CCOC(=O)C1=C(C)NC(=S)NC1c1ccc2cn[nH]c2c1 (racemic) | 61.2 | 48.5 | > 100 | – |
| 8.7 | 6.9 | > 100 | 9 | – | 1.2 | 73 | Active | – | CCOC(=O)C1=C(C)NC(=S)NC1c1cccc(O)c1 (racemic) [MONASTROL] | 95.2 | 89.5 | – | 81.8 |
